Measured values taken from patent publication US11306064B2, “Benzothia(di)azepine compounds and their use as bile acid modulators” (Albireo AB, priority 2018, dated 2022).

Columns and labels:
[1] = molecular target: T1, Human LBAT (Homo sapiens, UniProt Q14973); assay: LBAT (h/m) assay: 3H-taurocholic acid uptake in human LBAT-overexpressing cells; assay type: cell-based; details: 0.3 μM 3H-taurocholic acid and 7.5 μM cold taurocholic acid, 20 minutes, read-out: hLBAT IC50
T1 construct: expressed in transfected cells; kept under Geneticin selection
T1 sequence (Q14973 1-349): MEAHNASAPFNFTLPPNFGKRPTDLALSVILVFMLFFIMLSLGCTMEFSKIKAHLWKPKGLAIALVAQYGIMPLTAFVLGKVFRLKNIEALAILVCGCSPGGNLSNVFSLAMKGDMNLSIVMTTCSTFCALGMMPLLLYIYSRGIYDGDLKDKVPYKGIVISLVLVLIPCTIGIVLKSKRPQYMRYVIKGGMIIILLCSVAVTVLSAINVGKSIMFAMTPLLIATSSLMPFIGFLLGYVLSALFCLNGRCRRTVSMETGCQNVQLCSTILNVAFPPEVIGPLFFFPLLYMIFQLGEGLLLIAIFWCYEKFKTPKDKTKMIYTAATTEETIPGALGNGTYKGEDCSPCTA
How it was run: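 LBAT-overexpressing cells, serum-free MEM-alpha, 20 min at 37° C with inhibitor (3-fold, 10-point) plus 0.3 μM 3H-taurocholic acid and cold taurocholic acid (7.5 μM human; 25 μM mouse), 0.2% DMSO. Stopped on ice, washed with 1 mM unlabelled taurocholate; uptake by scintillation counting.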

[2] = Bioavailability studies in mice; assay type: in vivo; details: mouse; C57BL/6 mice; single intravenous dose 1 mg/kg vs single oral dose 10 mg/kg; plasma LC-MS/MS
Protocol: C57BL/6 mice of 8-9 weeks old were used. For each test compound, two groups of 3 animals each were used. One group was administered a single intravenous dose of 1 mg/kg (vehicle 100% DMSO) through the tail vein and the other group was administered a single oral dose of 10 mg/kg through gavage needle. The group that was administered an oral dose was fasted overnight. Blood samples were collected after 0.083, 0.25, 0.5, 1, 2, 4, 6, 8 and 24 hours following intravenous administration, and after 0.25, 0.5, 1, 2, 4, 6, 8 and 24 hours following oral administration. Blood samples were taken from saphenous vein. 0.2% EDTA was used as the anticoagulant. The samples were analyzed by a discovery grade bioanalytical method developed for the estimation of test compound in plasma, using an LC-MS/MS system.

Structure (SMILES) | IC50 [1] [nM] | bioavailability [2] [%]
CCCCC1(CC)CN(c2ccccc2)c2cc(Cl)c(O/C=C(\F)C(=O)O)cc2S(=O)(=O)C1 (single isomer, unassigned) [Example 48, (Z)-3-((3-butyl-7-chloro-3-ethyl-1,1-dioxido-5-phenyl-2,3,4,5-tetrahydro-1,5-benzothiazepin-8-yl)oxy)-2-fluoroacrylic acid] | 8.1 | 18
CCC1(CC)CN(c2ccccc2)c2cc(SC)c(O/C=C(\F)C(=O)O)cc2S(=O)(=O)C1 [Example 44, (Z)-3-((3,3-diethyl-7-(methylthio)-1,1-dioxido-5-phenyl-2,3,4,5-tetrahydro-1,5-benzothiazepin-8-yl)oxy)-2-fluoroacrylic Acid] | 9.1 | 100
CCCCC1(CCCC)CN(c2ccccc2)c2cc(SC)c(O/C=C(\F)C(=O)O)cc2S(=O)(=O)C1 [Example 11, (Z)-3-((3,3-dibutyl-7-(methylthio)-1,1-dioxido-5-phenyl-2,3,4,5-tetrahydro-1,5-benzothiazepin-8-yl)oxy)-2-fluoroacrylic acid] | 45 | 27
CCCCC1(CC)CN(c2ccccc2)c2cc(Br)c(O/C=C/C(=O)O)cc2S(=O)(=O)C1 (single isomer, unassigned) [Example 6, (E)-3-((7-bromo-3-butyl-3-ethyl-1,1-dioxido-5-phenyl-2,3,4,5-tetrahydro-1,5-benzothiazepin-8-yl)oxy)acrylic acid] | 156 | 100
CCCCC1(CC)CN(c2ccccc2)c2cc(SC)c(O/C=C(\F)C(=O)O)cc2S(=O)(=O)C1 (single isomer, unassigned) [Example 43, (Z)-3-((3-butyl-3-ethyl-7-(methylthio)-1,1-dioxido-5-phenyl-2,3,4,5-tetrahydro-1,5-benzothiazepin-8-yl)oxy)-2-fluoroacrylic acid] | 8 | 44
CCCCC1(CC)CN(c2ccccc2)c2cc(SC)c(O/C=C/C(=O)O)cc2S(=O)(=O)C1 (single isomer, unassigned) [Example 18, (E)-3-((3-butyl-3-ethyl-7-(methylthio)-1,1-dioxido-5-phenyl-2,3,4,5-tetrahydro-1,5-benzothiazepin-8-yl)oxy)acrylic acid] | 80 | 35
